Measurements from ChEMBL document CHEMBL1123455, “Conformational effects on the activity of drugs. 11. Stereostructural models for the direct activation of the alpha- and beta-adrenergic receptor” (J Med Chem, 1986).

How the values were obtained:
[1] = biological target: T1, Adrenergic receptor alpha (Rattus norvegicus) (UniProt P15823+P23944+P43140+P22086+P19328+P22909); conditions: Artery
Description: Compound was tested for alpha-adrenoceptor activity in isolated rat tail artery

[2] = biological target: T1, Adrenergic receptor alpha (Rattus norvegicus); conditions: Vas deferens
Description: Compound was tested for alpha-adrenoceptor activity in isolated rat vas deferens

[3] = biological target: T1, Adrenergic receptor alpha (Rattus norvegicus); experiment: Intrinsic activity against alpha-adrenoceptor in isolated rat tail artery
[4] = biological target: T1, Adrenergic receptor alpha (Rattus norvegicus); experiment: Intrinsic activity against alpha-adrenoceptor in isolated rat vas deferens; format: tissue-based
[5] = biological target: T2, Adrenergic receptor beta (Homo sapiens) (UniProt P08588+P07550+P13945); conditions: Cavia porcellus
Description: Compound was tested for beta-adrenoceptor activity in isolated guinea pig atria

[6] = biological target: T2, Adrenergic receptor beta (Homo sapiens); conditions: Cavia porcellus; remark: listed apart in the source
Description: Compound was tested for beta adrenergic receptor activity in isolated guinea pig tracheal strip

[7] = biological target: T2, Adrenergic receptor beta (Homo sapiens); conditions: Cavia porcellus; remark: listed apart in the source
Description: Compound was tested for beta adrenergic receptor activity in isolated guinea pig atria

[8] = biological target: T2, Adrenergic receptor beta (Homo sapiens); experiment: Intrinsic activity beta adrenergic receptor in isolated guinea pig tracheal strip; conditions: Cavia porcellus; target entry is the homologue from another species

**Q.** For `NC[C@H](O)c1ccc(O)c(O)c1`, which pD2 [1] is on record?
**A.** 6.16

**Q.** What about the pD2 [2] of the same molecule?
**A.** 4.96

**Q.** And the Intrinsic activity [3]?
**A.** 1

**Q.** And the Intrinsic activity [4]?
**A.** 1

**Q.** What about the pD2 [5] of the same molecule?
**A.** 6.5

**Q.** What about the pD2 [6] of the same molecule?
**A.** 6.04

**Q.** For `CC(C)N[C@@H]1CCc2c(ccc(O)c2O)[C@H]1O`, which pD2 [7] is on record?
**A.** 7.56

**Q.** And the pD2 [6]?
**A.** 8.41

**Q.** What does the source list for `CC(C)N1CCCC(O)(c2ccc(O)c(O)c2)C1` (centres undefined)?
**A.** pD2 [7]: 8.14; pD2 [6]: 8.26

**Q.** `NC1CCc2c(ccc(O)c2O)[C@H]1O` (some centres undefined) was tested. Which pD2 [7] did it give?
**A.** 6.74

**Q.** And the pD2 [6]?
**A.** 7.49

**Q.** Which Intrinsic activity [3] does the source give for `Oc1ccc(C2CNCCO2)cc1O` (centres undefined) here?
**A.** 0.92

**Q.** What about the Intrinsic activity [4] of the same molecule?
**A.** 0.91

**Q.** How did the Intrinsic activity [3] turn out when `Oc1ccc(C2(O)CCCNC2)cc1O` (centres undefined) was run?
**A.** 1

**Q.** What about the Intrinsic activity [8] of the same molecule?
**A.** 0.77

**Q.** What about the Intrinsic activity [4] of the same molecule?
**A.** 0.95

**Q.** `CC(C)N1CCOC(c2ccc(O)c(O)c2)C1` (centres undefined) was tested. Which pD2 [7] did it give?
**A.** 5.74

**Q.** What about the pD2 [6] of the same molecule?
**A.** 6.34
